# Patent publication US8211935B2, “Heterocyclic derivatives for modulation of calcium channels” (Vertex Pharmaceuticals Incorporated, priority 2004, dated 2012)
# Biological target: T1, CaV2.2 (Homo sapiens, UniProt Q00975)
# T1 construct: expressed in transfected cells; host or cells: HEK293
# Test: VIPR optical membrane potential assay with electrical stimulation
# Assay type: cell-based
# Conditions: not given
# Method: Antagonist properties of test compounds were assessed as follows. Cells expressing the CaV of interest were placed into microtiter plates. After an incubation period, the cells were stained with fluorescent dyes sensitive to the transmembrane potential. The test compounds were added to the microtiter plate. The cells were stimulated with electrical means to evoke a CaV dependent membrane potential change from unblocked channels, which was detected and measured with trans-membrane potential-sensitive dyes. Antagonists were detected as a decreased membrane potential response to the stimulus.
# VIPR® Optical Membrane Potential Assay Method with Electrical Stimulation
# The following is an example of how CaV2.2 inhibition activity is measured using the optical membrane potential method. Other subtypes are performed in an analogous mode in a cell line expressing the CaV of interest.
# HEK293 cells stably expressing CaV2.2 are plated into 96-well microtiter plates. After an appropriate incubation period, the cells are stained with the voltage sensitive dyes CC2-DMPE/DiSBAC2(3) as follows.
# 2×CC2-DMPE=20 μM CC2-DMPE: 10 mM CC2-DMPE is vortexed with an equivalent volume of 10% Pluronic, followed by vortexing in required amount of HBSS containing 10 mM HEPES. Each cell plate will require 5 mL of 2×CC2-DMPE. 50 μL of 2×CC2-DMPE is added to wells containing washed cells, resulting in a 10 μM final staining concentration. The cells are stained for 30 minutes in the dark at RT.
# Vortex in required amount of Bath X with beta-cyclodextrin. Each 96 well cell plate will require 5 ml of 2×CC2DMPE. Wash plate with ELx405 with Bath X, leaving a residual volume of 50 μL/well. Add 50 μL of 2×CC2DMPE & DISBAC6(3) to each well. Stain for 30 minutes in the dark at RT.
# Allow solution to sit for 10 minutes. Slowly mix in 370 mM BaCl2. This solution can be used to solvate compound plates. Note that compound plates are made at 1.5× drug concentration and not the usual 2×. Wash CC2 stained plate, again, leaving residual volume of 50 pt. Add 100 uL/well of the AY17 solution. Stain for 15 minutes in the dark at RT. Run plate on the optical reader.
# The instrument comprises a microtiter plate handler, an optical system for exciting the coumarin dye while simultaneously recording the coumarin and oxonol emissions, a waveform generator, a current- or voltage-controlled amplifier, and a device for inserting electrodes in well. Under integrated computer control, this instrument passes user-programmed electrical stimulus protocols to cells within the wells of the microtiter plate.
# Insert or use electrodes into each well to be assayed.
# Use the current-controlled amplifier to deliver stimulation wave pulses for 3-5 s. Two seconds of pre-stimulus recording are performed to obtain the un-stimulated intensities. Five seconds of post-stimulation recording are performed to examine the relaxation to the resting state.
# Data are analyzed and reported as normalized ratios of background-subtracted emission intensities measured in the 460 nm and 580 nm channels. Background intensities are then subtracted from each assay channel. Background intensities are obtained by measuring the emission intensities during the same time periods from identically treated assay wells in which there are no cells. The response as a function of time is then reported as the ratios obtained using the following formula: […]
# The data is further reduced by calculating the initial (Ri) and final (Rf) ratios. These are the average ratio values during part or all of the pre-stimulation period, and during sample points during the stimulation period. The response to the stimulus R=Rf/Ri is then calculated.
# Control responses are obtained by performing assays in the presence of a compound with the desired properties (positive control), such as mibefradil, and in the absence of pharmacological agents (negative control). Responses to the negative (N) and positive (P) controls are calculated as above.
# T1 sequence (Q00975 whole entry): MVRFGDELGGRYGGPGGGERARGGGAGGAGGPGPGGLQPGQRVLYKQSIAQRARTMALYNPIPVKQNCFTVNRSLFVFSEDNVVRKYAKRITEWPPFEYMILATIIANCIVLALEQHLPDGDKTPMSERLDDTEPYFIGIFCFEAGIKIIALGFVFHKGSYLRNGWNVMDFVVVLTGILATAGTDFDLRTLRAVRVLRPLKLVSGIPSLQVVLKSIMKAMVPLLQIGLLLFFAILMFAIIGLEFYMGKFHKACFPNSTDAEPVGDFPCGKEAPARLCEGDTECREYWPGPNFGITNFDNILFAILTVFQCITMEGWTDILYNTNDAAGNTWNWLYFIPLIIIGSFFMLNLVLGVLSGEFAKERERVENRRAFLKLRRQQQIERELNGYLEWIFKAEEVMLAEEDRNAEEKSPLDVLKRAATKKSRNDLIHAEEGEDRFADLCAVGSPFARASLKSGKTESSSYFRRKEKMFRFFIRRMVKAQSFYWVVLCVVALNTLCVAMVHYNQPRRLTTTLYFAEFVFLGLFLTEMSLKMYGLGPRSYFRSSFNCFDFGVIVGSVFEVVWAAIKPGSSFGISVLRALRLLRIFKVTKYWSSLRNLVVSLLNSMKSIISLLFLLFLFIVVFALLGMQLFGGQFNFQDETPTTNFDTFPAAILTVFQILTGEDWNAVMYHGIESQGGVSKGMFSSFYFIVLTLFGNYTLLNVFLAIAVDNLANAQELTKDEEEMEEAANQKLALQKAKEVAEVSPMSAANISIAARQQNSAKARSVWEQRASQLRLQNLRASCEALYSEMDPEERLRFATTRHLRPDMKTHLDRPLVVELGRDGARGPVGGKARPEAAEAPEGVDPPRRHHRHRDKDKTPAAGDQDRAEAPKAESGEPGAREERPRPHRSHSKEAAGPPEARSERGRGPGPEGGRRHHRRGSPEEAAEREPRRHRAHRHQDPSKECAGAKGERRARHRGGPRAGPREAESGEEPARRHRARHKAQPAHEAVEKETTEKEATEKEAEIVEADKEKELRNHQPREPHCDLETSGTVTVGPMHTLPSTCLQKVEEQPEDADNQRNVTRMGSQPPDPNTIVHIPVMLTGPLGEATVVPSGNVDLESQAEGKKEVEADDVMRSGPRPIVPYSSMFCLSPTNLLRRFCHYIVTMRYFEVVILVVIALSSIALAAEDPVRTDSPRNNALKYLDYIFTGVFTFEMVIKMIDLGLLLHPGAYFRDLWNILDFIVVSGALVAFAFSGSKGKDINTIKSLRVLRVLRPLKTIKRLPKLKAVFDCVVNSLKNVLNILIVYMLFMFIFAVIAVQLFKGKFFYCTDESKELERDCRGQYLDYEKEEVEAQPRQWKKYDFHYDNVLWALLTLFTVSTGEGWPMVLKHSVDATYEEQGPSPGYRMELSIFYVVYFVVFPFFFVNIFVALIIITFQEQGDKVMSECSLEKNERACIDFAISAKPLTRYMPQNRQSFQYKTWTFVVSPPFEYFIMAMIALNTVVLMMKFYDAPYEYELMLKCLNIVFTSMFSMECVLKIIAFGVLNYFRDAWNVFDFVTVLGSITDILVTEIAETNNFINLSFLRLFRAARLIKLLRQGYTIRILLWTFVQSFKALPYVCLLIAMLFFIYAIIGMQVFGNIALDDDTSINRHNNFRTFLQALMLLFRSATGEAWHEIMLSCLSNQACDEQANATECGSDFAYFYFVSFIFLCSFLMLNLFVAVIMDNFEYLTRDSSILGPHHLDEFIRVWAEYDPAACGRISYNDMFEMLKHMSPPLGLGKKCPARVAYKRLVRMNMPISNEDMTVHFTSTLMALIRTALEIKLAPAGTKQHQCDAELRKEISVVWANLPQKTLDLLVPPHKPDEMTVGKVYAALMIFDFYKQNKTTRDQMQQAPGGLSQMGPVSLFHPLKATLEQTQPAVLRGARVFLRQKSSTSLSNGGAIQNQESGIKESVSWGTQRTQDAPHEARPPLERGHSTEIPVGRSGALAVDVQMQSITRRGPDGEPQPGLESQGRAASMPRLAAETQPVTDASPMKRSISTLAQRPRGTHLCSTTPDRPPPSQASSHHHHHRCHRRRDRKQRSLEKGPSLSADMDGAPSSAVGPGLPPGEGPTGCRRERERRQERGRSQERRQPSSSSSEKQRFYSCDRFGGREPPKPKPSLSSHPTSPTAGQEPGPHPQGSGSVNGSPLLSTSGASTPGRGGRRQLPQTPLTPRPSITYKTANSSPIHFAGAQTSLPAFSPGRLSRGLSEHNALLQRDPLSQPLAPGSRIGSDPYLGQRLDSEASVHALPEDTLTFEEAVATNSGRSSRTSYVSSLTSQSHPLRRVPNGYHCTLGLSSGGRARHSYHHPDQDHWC
# T1 sequence (P54284 whole entry partner): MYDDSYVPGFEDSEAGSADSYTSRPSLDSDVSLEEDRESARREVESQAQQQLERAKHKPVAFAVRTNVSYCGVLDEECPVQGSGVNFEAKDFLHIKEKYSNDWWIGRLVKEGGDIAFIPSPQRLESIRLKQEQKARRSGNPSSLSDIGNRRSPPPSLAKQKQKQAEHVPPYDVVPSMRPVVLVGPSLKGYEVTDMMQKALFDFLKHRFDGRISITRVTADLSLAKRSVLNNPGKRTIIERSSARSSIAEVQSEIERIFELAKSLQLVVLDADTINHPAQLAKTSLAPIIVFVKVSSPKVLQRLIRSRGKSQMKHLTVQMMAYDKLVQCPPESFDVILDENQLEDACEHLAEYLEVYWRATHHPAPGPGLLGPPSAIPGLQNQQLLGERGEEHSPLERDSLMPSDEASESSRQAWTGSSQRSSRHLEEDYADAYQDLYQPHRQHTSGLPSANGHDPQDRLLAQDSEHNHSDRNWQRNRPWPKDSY
# T1 sequence (P54289 25-946 partner limits assumed): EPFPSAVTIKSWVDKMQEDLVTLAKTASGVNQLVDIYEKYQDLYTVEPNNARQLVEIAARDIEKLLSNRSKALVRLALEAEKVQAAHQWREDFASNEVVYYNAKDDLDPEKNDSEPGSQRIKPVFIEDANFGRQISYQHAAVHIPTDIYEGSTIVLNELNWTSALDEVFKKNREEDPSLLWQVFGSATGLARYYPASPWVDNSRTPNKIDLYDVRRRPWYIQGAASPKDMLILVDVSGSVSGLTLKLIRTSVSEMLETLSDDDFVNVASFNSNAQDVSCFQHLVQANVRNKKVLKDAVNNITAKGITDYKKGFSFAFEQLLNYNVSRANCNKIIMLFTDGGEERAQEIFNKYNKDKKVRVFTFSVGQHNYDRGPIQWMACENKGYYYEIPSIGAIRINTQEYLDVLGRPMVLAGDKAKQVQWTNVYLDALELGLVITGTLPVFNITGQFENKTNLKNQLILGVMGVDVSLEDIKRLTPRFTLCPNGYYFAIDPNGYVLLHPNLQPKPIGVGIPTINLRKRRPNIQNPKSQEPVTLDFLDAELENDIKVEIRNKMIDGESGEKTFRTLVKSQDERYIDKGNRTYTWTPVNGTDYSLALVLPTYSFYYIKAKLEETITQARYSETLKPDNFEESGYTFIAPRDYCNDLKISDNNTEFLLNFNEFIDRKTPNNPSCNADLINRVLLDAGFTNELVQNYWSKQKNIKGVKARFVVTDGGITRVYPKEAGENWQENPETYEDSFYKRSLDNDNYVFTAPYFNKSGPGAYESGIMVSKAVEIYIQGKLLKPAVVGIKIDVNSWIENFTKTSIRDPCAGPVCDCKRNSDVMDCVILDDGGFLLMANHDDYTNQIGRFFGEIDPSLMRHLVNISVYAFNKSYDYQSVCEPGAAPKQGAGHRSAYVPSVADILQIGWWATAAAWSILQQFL
# T1 sequence (P54289 947-1103 partner limits assumed): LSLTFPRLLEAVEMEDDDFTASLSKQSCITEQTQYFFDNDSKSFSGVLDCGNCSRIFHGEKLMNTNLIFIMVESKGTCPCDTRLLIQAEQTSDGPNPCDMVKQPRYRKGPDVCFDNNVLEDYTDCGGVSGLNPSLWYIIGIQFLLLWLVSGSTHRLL
row,SMILES,IC50
1,CC1CCN(S(=O)(=O)c2ccc3oc(C(=O)N4CCC5(CC4)OCCO5)cc3c2)CC1 [compound 106],< 20 µM
2,O=C(c1cc2cc(S(=O)(=O)N3CCCCCC3)ccc2o1)N1CCC2(CC1)OCCO2 [compound 183],5 to 20 µM
3,Cc1c(C(=O)N2CCC3(CC2)OCCO3)[nH]c2ccc(S(=O)(=O)N3CCCCCC3)cc12 [compound 232],5 to 20 µM

# Same assay, conditions: Table 3, biological assay data; read-out: IC50
row,SMILES,IC50
1,CC1CCN(S(=O)(=O)c2ccc3[nH]c(C(=O)N4CCCC4)cc3c2)CC1 [compound 104],5 to 20 µM
2,CCN(CC)S(=O)(=O)c1ccc2oc(C(=O)N3CCCC(C)C3)c(C)c2c1 (stereo not drawn) [compound 388],5 to 20 µM
3,Cc1c(C(=O)NC(C)c2ccccc2)oc2ccc(S(=O)(=O)N3CCCC3)cc12 (stereo not drawn) [compound 28],< 20 µM
4,Cc1c(C(=O)NC2CCCC2)oc2ccc(S(=O)(=O)N3CCOCC3)cc12 [compound 361],< 20 µM
5,Cc1c(C(=O)NC2CC2)oc2ccc(S(=O)(=O)Nc3nncs3)cc12 [compound 133],< 20 µM
6,CC1CCN(S(=O)(=O)c2ccc3oc(C(=O)NC(C)C)cc3c2)CC1 [compound 234],< 5 µM
7,CC1CCN(C(=O)c2cc3cc(S(=O)(=O)N4CCC(C)CC4)ccc3[nH]2)CC1 [compound 147],< 5 µM
8,CC1CC(C)CN(S(=O)(=O)c2ccc3[nH]c(C(=O)NCc4ccccc4)cc3c2)C1 (stereo not drawn) [compound 357],< 5 µM
9,CNC(=O)c1cc2cc(S(=O)(=O)N3CC(C)CC(C)C3)ccc2n1C (stereo not drawn) [compound 435],< 5 µM
10,Cc1c(C(=O)N(C(C)C)C(C)C)[nH]c2ccc(S(=O)(=O)N3CCC(C)CC3)cc12 [compound 262],< 5 µM
11,Cc1c(C(=O)N2CCCCC2)oc2ccc(S(=O)(=O)N3CC(C)CC(C)C3)cc12 (stereo not drawn) [compound 451],< 5 µM
12,CC1CC(C)CN(S(=O)(=O)c2ccc3oc(C(=O)NCC4CCCO4)cc3c2)C1 (stereo not drawn) [compound 408],< 5 µM
13,Cc1c(C(=O)NCCc2ccccc2)[nH]c2ccc(S(=O)(=O)N3CC(C)CC(C)C3)cc12 (stereo not drawn) [compound 13],< 5 µM
14,CC(C)NC(=O)c1cc2cc(S(=O)(=O)N3CCCCCC3)ccc2[nH]1 [compound 400],< 20 µM
15,Cc1c(C(=O)NCCCc2ccccc2)[nH]c2ccc(S(=O)(=O)N3CC(C)CC(C)C3)cc12 (stereo not drawn) [compound 49],< 5 µM
16,CCN(CC)S(=O)(=O)c1ccc2oc(C(=O)NCCc3ccccc3)c(C)c2c1 [compound 291],5 to 20 µM
17,O=C(NC1CC1)c1cc2cc(NS(=O)(=O)c3ccccc3)ccc2[nH]1 [compound 428],< 20 µM
18,Cc1c(C(=O)NCCCN2CCCC2=O)oc2ccc(S(=O)(=O)N3CC(C)CC(C)C3)cc12 (stereo not drawn) [compound 134],5 to 20 µM
19,CNC(=O)c1oc2ccc(S(=O)(=O)N3CCC(C)CC3)cc2c1C [compound 10],5 to 20 µM
20,Cc1c(C(=O)N2CCCCC2C)[nH]c2ccc(S(=O)(=O)N3CCC(C)CC3)cc12 (stereo not drawn) [compound 239],5 to 20 µM

row,SMILES,IC50
1,Cc1c(C(=O)NC2CCCCC2)oc2ccc(S(=O)(=O)N3CCC(C)CC3)cc12 [compound 465],5 to 20 µM
2,Cc1c(C(=O)NC2CC2)oc2ccc(S(=O)(=O)N3CCCC(F)(F)C3)cc12 [compound 426],5 to 20 µM
3,CCN(CC)S(=O)(=O)c1ccc2oc(C(=O)N3CCCC3)c(C)c2c1 [compound 332],< 20 µM
4,Cc1c(C(=O)N2CCCC(C)C2)oc2ccc(S(=O)(=O)N3CCC(C)CC3)cc12 (stereo not drawn) [compound 58],5 to 20 µM
5,CC1CCN(S(=O)(=O)c2ccc3[nH]c(C(=O)N(C)Cc4ccccc4)cc3c2)CC1 [compound 285],< 5 µM
6,Cc1c(C(=O)N(C(C)C)C(C)C)oc2ccc(S(=O)(=O)N3CCCC(C)C3)cc12 (stereo not drawn) [compound 263],< 5 µM
7,Cc1c(C(=O)N(C)C)oc2ccc(S(=O)(=O)N3CCC(C)CC3)cc12 [compound 353],5 to 20 µM
8,CC1CCN(S(=O)(=O)c2ccc3oc(C(=O)NCCC4CCOCC4)cc3c2)CC1 [compound 266],< 5 µM
9,CC1CC(C)CN(C(=O)c2cc3cc(S(=O)(=O)N4CCCCCC4)ccc3o2)C1 (stereo not drawn) [compound 226],< 5 µM
10,CC1CCCN(C(=O)c2cc3cc(S(=O)(=O)N4CC(C)CC(C)C4)ccc3[nH]2)C1 (stereo not drawn) [compound 171],< 5 µM
11,CCN(CC)S(=O)(=O)c1ccc2oc(C(=O)NCCC3CCOCC3)c(C)c2c1 [compound 322],< 20 µM
12,Cc1c(C(=O)NC2CC2)oc2ccc(S(=O)(=O)NCc3ccncc3)cc12 [compound 302],< 20 µM
13,Cc1c(C(=O)NCC2CCCO2)oc2ccc(S(=O)(=O)N3CCCCCC3)cc12 (stereo not drawn) [compound 249],5 to 20 µM
14,COc1ccc(NS(=O)(=O)c2ccc3oc(C(=O)NC4CC4)c(C)c3c2)cc1 [compound 115],5 to 20 µM
15,CC1CCN(S(=O)(=O)c2ccc3oc(C(=O)NCCc4ccccc4)cc3c2)CC1 [compound 97],5 to 20 µM
16,CCNC(=O)c1oc2ccc(S(=O)(=O)N3CCC(C)CC3)cc2c1C [compound 256],5 to 20 µM
17,CCNC(=O)c1cc2cc(S(=O)(=O)N3CC(C)CC(C)C3)ccc2[nH]1 (stereo not drawn) [compound 384],< 5 µM
18,Cc1c(C(=O)N2CCC(C)CC2)[nH]c2ccc(S(=O)(=O)N3CCC(C)CC3)cc12 [compound 269],5 to 20 µM
19,CCN(CC)S(=O)(=O)c1ccc2oc(C(=O)NCC3CCOCC3)c(C)c2c1 [compound 458],< 20 µM
20,Cc1c(C(=O)NC2CC2)oc2ccc(S(=O)(=O)N(CCN(C)C)Cc3ccccc3)cc12 [compound 24],< 20 µM

row,SMILES,IC50
1,O=C(NCCC1CCOCC1)c1cc2cc(S(=O)(=O)N3CCCCCC3)ccc2[nH]1 [compound 335],< 5 µM
2,CC1CCN(S(=O)(=O)c2ccc3[nH]c(C(=O)NC4CCCC4)cc3c2)CC1 [compound 412],< 5 µM
3,CC1CC(C)CN(S(=O)(=O)c2ccc3[nH]c(C(=O)NCC4CCOCC4)cc3c2)C1 (stereo not drawn) [compound 275],< 5 µM
4,O=C(NCC1CCCO1)c1cc2cc(S(=O)(=O)N3CCCCCC3)ccc2o1 (stereo not drawn) [compound 429],5 to 20 µM
5,Cc1c(C(=O)N(C)Cc2ccccc2)oc2ccc(S(=O)(=O)N3CCOCC3)cc12 [compound 360],5 to 20 µM
6,Cc1c(C(=O)NC2CCCCC2)oc2ccc(S(=O)(=O)N3CCCCCC3)cc12 [compound 446],5 to 20 µM
7,Cc1c(C(=O)N2CCCC(C)C2)[nH]c2ccc(S(=O)(=O)N3CC(C)CC(C)C3)cc12 (stereo not drawn) [compound 227],< 5 µM
8,Cc1c(C(=O)NC2CCCCC2)oc2ccc(S(=O)(=O)N3CCCC(C)C3)cc12 (stereo not drawn) [compound 9],< 5 µM
9,CNC(=O)c1oc2ccc(S(=O)(=O)N3CCCCC3)cc2c1C [compound 155],< 20 µM
10,CC1CC(C)CN(S(=O)(=O)c2ccc3[nH]c(C(=O)NCC4CCCO4)cc3c2)C1 (stereo not drawn) [compound 16],< 5 µM
11,Cc1c(C(=O)N2CCCCCC2)oc2ccc(S(=O)(=O)N3CCCC(C)C3)cc12 (stereo not drawn) [compound 409],< 5 µM
12,CN(Cc1ccccc1)C(=O)c1cc2cc(S(=O)(=O)N3CCCCCC3)ccc2o1 [compound 43],< 5 µM
13,CC1CC(C)CN(S(=O)(=O)c2ccc3oc(C(=O)N4CCCCC4C)cc3c2)C1 (stereo not drawn) [compound 333],5 to 20 µM
14,Cc1c(C(=O)NC2CCCCC2)[nH]c2ccc(S(=O)(=O)N3CCC(C)CC3)cc12 [compound 424],5 to 20 µM
15,Cc1c(C(=O)NC2CC2)oc2ccc(S(=O)(=O)N3CCCCC3)cc12 [compound 257],< 20 µM
16,Cc1c(C(=O)NCCc2ccccc2)[nH]c2ccc(S(=O)(=O)N3CCC(C)CC3)cc12 [compound 381],< 5 µM
17,Cc1c(C(N)=O)oc2ccc(S(=O)(=O)N3CCC(C)CC3)cc12 [compound 431],5 to 20 µM
18,CC1CCN(S(=O)(=O)c2ccc3oc(C(=O)NCC4CCCO4)cc3c2)CC1 (stereo not drawn) [compound 456],5 to 20 µM
19,Cc1c(C(=O)NC2CCCC2)oc2ccc(S(=O)(=O)N3CC(C)CC(C)C3)cc12 (stereo not drawn) [compound 247],< 5 µM
20,CC1CCN(S(=O)(=O)c2ccc3[nH]c(C(=O)N(C(C)C)C(C)C)cc3c2)CC1 [compound 140],< 5 µM
